System: 855422-203-R-J1-PDC spheroids with HUVEC/MSC, viability
Assay: Anticancer human tumor 855422-203-R-J1-PDC patient-derived bladder carcinoma cell line growth inhibition [PI3K]
Conditions: for IC50: curve of first compound; for viability, T/C: stronger effect = lower value; active = viability on the fitted dose curve at most 10% of control; inactive = the rest
In short: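 Tumor cells grown as multi-cell spheroids with HUVEC endothelial cells and MSC fibroblast-like stroma were treated with targeted agents combined with inavolisib, alpelisib, duvelisib or copanlisib. Doses fell in half-log steps from near clinical Cmax, else from 10 microM. Viability was measured.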
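Also: agents incubated with spheroids for one week before read-out.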
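For viability, T/C in this document: 100% = DMSO vehicle-treated control wells.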

CCCS(=O)(=O)Nc1ccc(F)c(C(=O)c2c[nH]c3ncc(-c4ccc(Cl)cc4)cc23)c1F + CC(Nc1ncnc2nc[nH]c12)c1cc2cccc(Cl)c2c(=O)n1-c1ccccc1
4.24 µM: IC50 (second compound 3.16 µM)
3.7 µM: IC50 (second compound 0.0316 µM)
inactive: viability, T/C (second compound 0.0316 µM, first compound 0.0316 µM) 118% | viability, T/C (second compound 0.0316 µM, first compound 0.1 µM) 88.6% | viability, T/C (second compound 0.0316 µM, first compound 0.316 µM) 102% | viability, T/C (second compound 0.0316 µM, first compound 1 µM) 85.9% | viability, T/C (second compound 0.0316 µM, first compound 3.16 µM) 59% | viability, T/C (second compound 0.1 µM, first compound 0.0316 µM) 110% | viability, T/C (second compound 0.1 µM, first compound 0.1 µM) 109% | viability, T/C (second compound 0.1 µM, first compound 0.316 µM) 103% | viability, T/C (second compound 0.1 µM, first compound 1 µM) 88.1% | viability, T/C (second compound 0.1 µM, first compound 3.16 µM) 58.1% | viability, T/C (second compound 0.316 µM, first compound 0.0316 µM) 100% | viability, T/C (second compound 0.316 µM, first compound 0.1 µM) 97.9% | viability, T/C (second compound 0.316 µM, first compound 0.316 µM) 90.7% | viability, T/C (second compound 0.316 µM, first compound 1 µM) 88.4% | viability, T/C (second compound 0.316 µM, first compound 3.16 µM) 70.4% | viability, T/C (second compound 1 µM, first compound 0.0316 µM) 92.8% | viability, T/C (second compound 1 µM, first compound 0.1 µM) 98.2% | viability, T/C (second compound 1 µM, first compound 0.316 µM) 98% | viability, T/C (second compound 1 µM, first compound 1 µM) 91.6% | viability, T/C (second compound 1 µM, first compound 3.16 µM) 75% | viability, T/C (second compound 3.16 µM, first compound 0.0316 µM) 89.2% | viability, T/C (second compound 3.16 µM, first compound 0.1 µM) 100% | viability, T/C (second compound 3.16 µM, first compound 0.316 µM) 99.7% | viability, T/C (second compound 3.16 µM, first compound 1 µM) 78.2% | viability, T/C (second compound 3.16 µM, first compound 3.16 µM) 70% | viability, T/C (second compound 10 µM, first compound 0.0316 µM) 87% | viability, T/C (second compound 10 µM, first compound 0.1 µM) 83.4% | viability, T/C (second compound 10 µM, first compound 0.316 µM) 77.8% | viability, T/C (second compound 10 µM, first compound 1 µM) 76.9% | viability, T/C (second compound 10 µM, first compound 3.16 µM) 58.2%
3.69 µM: IC50 (second compound 0.1 µM) | IC50 (second compound 10 µM)
4.64 µM: IC50 (second compound 1 µM)
active: viability, T/C (second compound 0.0316 µM, first compound 10 µM) 0.26% | viability, T/C (second compound 0.1 µM, first compound 10 µM) 0.13% | viability, T/C (second compound 0.316 µM, first compound 10 µM) 0.12% | viability, T/C (second compound 1 µM, first compound 10 µM) 0.2% | viability, T/C (second compound 3.16 µM, first compound 10 µM) 0.61% | viability, T/C (second compound 10 µM, first compound 10 µM) 0.42%
4.35 µM: IC50 (second compound 0.316 µM)

From PubChem BioAssay AID1963967 (Molecular Pharmacology Branch, DTP, NCI, 2024)
